# Experimental data taken from patent US20170216297A1, “EFFICIENT INHIBITION OF HSP27” (TECHNISCHE UNIVERSITAET DRESDEN, priority 2014, published 2017).
# Experiments:
# HSP27 [1] = biological target: T1, HSP27 (Homo sapiens, UniProt P04792); test: SpeedScreen gel filtration binding test (Sephadex G-25, detection by mass spectroscopy)
# Text: For the experimental validation of low-molecular-weight compounds which act as potential HSP27 inhibitors according to the in silico prediction, a method based on gel filtration was employed. The method for detecting molecular bonds using gel filtration was described in 2004 as “SpeedScreen” [Muckenschnabel et al., 2004] and was adapted to meet the requirements of the invention. […] For the separation, PD SpinTraps G-25 from GE Healthcare were used. During the 2-minute centrifugation at 800×g (according to operating instructions), these columns allow molecules with a molecular weight of greater than or equal to 5000 g/mol to pass through, while smaller molecules are retained in the matrix. The target protein HSP27 has a molecular weight of 27000 g/mol and therefore passes through the matrix. […] Non-bound low-molecular-weight compounds are retained by the matrix. Molecules that have passed through the matrix can then be detected by mass spectroscopy. This enables “binders” to be differentiated from “non-binders”. For the experimental validation of low-molecular-weight compounds which act as potential HSP27 inhibitors according to the in silico prediction, a method based on gel filtration was employed. […] Molecules that have passed through the matrix can then be detected by mass spectroscopy. […]
# HSP27 [2] = biological target: T1, HSP27; test: Capillary electrophoresis of the CS protein precipitates (precipitated citrate synthase as measure of HSP27 inhibition); format: biochemical; conditions: 10 μmol/L; 43° C. for 120 minutes; 750 μmol/L BVDU set at 1
# Procedure, shortened: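 Heat-denatured citrate synthase (1.44 μmol/L) with HSP27 (481 nmol/L) in 40 mmol/L HEPES pH 7.4; precipitates pelleted at 16,000×g, 10 min, room temperature, and quantified by capillary electrophoresis, BSA-normalized. Test substances at 10 μmol/L; precipitate relative to 750 μmol/L BVDU set at 1.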
# T1 sequence (P04792 whole entry): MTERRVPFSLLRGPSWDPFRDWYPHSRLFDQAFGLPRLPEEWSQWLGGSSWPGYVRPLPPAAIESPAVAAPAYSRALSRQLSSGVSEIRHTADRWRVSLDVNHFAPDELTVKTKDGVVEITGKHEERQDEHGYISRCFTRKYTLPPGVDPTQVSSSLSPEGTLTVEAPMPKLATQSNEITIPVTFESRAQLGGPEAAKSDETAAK
structure (smiles),measurement,setting,value
CC(=O)c1ccc2c(c1)N(CCCN(C)C)c1ccccc1S2 [Acepromazine],Binding to HSP27 by SpeedScreen (passage through the Sephadex G-25 matrix),HSP27 [1],tested positively
same,Rel. quantity of protein prec. CS,HSP27 [2],0.99
